Measured values published in US20060009358A1, “Synergistically acting herbicidal mixtures” (priority 2002, published 2006).

Tests used:
Experiment in all cases: Herbicidal action, post-emergence treatment, greenhouse (damage 0-100% vs untreated control)
Format in all cases: in vivo
Polygonum persicaria = tested on: Polygonum persicaria
From the text: (§1) The mixtures according to the invention were applied pre- or post-emergence (foliar treatment). The herbicidal compounds of component B and, if desired, of component C were applied in the formulation in which they are present as commercially available product.
(§2) The herbicidally active compounds of components A), B) and, if desired, C) were applied in succession or jointly, in the latter case in some cases as a tank mix and in some cases as a ready-mix, in the form of emulsions, aqueous solutions or-suspensions, the vehicle being water (300-400 l/ha). In the case of the field trials, application was effected with the aid of a mobile plot sprayer.
(§3) The test period extended over 3 to 8 weeks, and the stands were also observed at later points in time.
(§4) Damage by the herbicidal compositions was evaluated with reference to a scale of 0% to 100% in comparison with untreated control plots. 0 means no damage and 100 means complete destruction of the plants.
(§5) In these examples, the value E at which only an additive effect of the individual active ingredients is to be expected was calculated by the method of S. R. Colby (Calculating synergistic and antagonistic responses of herbicide combinations, Weeds 15, 20 pp (1967)).
(§6) This was done using the formula [formula] where • X=Percentage of the herbicidal action of component X) at an application rate of x; • Y=Percentage of the herbicidal action of component Y) at an application rate of y; • E=expected herbicidal action of component X)+Y) at rates of application x+y (in %).
(§7) If the value observed exceeds the value E calculated in accordance with Colby's formula, then synergism is present.

Setaria faberi = tested on: Setaria faberi
From the text: as §1, §2, §3, §4, §5, §6, §7

Abutilon theophrasti = tested on: Abutilon theophrasti
From the text: as §1, §2, §3, §4, §5, §6, §7

Galium aparine = tested on: Galium aparine
From the text: as §1, §2, §3, §4, §5, §6, §7

Brachiaria plantaginea = details: Table 8, application rate 125 g/ha ai
From the text: as §1, §2, §3, §4, §5, §6, §7

Pharbitis purpurea = details: Table 11, application rate 31.2 g/ha ai
From the text: as §1, §2, §3, §4, §5, §6, §7

Echinochloa crus-galli = details: Table 5, application rate 3.91 g/ha ai
From the text: as §1, §2, §3, §4, §5, §6, §7

[1] = Table 3, application rate 3.91 g/ha ai
[2] = Table 4, application rate 7.81 g/ha ai

CCNc1nc(Cl)nc(NC(C)C)n1 [atrazine]
Polygonum persicaria Damage (Polygonum persicaria; Table 10, application rate 62.5 g/ha ai): 40%
Polygonum persicaria Damage (Polygonum persicaria; Table 12, application rate 31.2 g/ha ai): 30%
Setaria faberi Damage (Setaria faberi; Table 11, application rate 31.2 g/ha ai): 30%
Abutilon theophrasti Damage (Abutilon theophrasti; Table 8, application rate 125 g/ha ai): 30%
Galium aparine Damage (Galium aparine; Table 9, application rate 125 g/ha ai): 60%
Brachiaria plantaginea Damage (Brachiaria plantaginea): 25%
Pharbitis purpurea Damage (Pharbitis purpurea): 60%

Cc1ccn2nc(S(=O)(=O)Nc3c(F)cccc3F)nc2n1 [IIa, flumetsulam]
Abutilon theophrasti Damage (Abutilon theophrasti; [1]): 60%
Echinochloa crus-galli Damage (Echinochloa crus-galli): 25%
Galium aparine Damage (Galium aparine; [2]): 80%

Cc1c(C(=O)c2cnn(C)c2O)ccc(S(C)(=O)=O)c1C1=NOCC1 [Ia.29, 4-[2-methyl-3-(4,5-dihydroisoxazol-3-yl)-4-methylsulfonyl-benzoyl]-1-methyl-5-hydroxy-1H-pyrazole]
Abutilon theophrasti Damage (Abutilon theophrasti; [1]): 60%
Galium aparine Damage (Galium aparine; [2]): 70%

O=C(O)c1nc(Cl)ccc1Cl [IIb, clopyralid]
Setaria faberi Damage (Setaria faberi; Table 6, application rate 250 g/ha ai): 20%
Setaria faberi Damage (Setaria faberi; Table 7, application rate 125 g/ha ai): 20%
